Compound in the test “Venetoclax + AZD7762”: CC1(C)CCC(CN2CCN(c3ccc(C(=O)NS(=O)(=O)c4ccc(NCC5CCOCC5)c([N+](=O)[O-])c4)c(Oc4cnc5[nH]ccc5c4)c3)CC2)=C(c2ccc(Cl)cc2)C1 [Venetoclax] + NC(=O)Nc1cc(-c2cccc(F)c2)sc1C(=O)N[C@H]1CCCNC1 [AZD7762] (partner 0.2 µM)
The test can be described thus: relative viability (nuclei count vs DMSO), 5 days (fraction); higher = more cells survive. The method in brief:
(§1)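 Medians of duplicate plates are given as relative viability. That measure is the nuclei count in treated wells divided by the count in vehicle wells. Counts were taken on 4× images of lung cancer cell lines in 1536-well plates, 5 days after pin-tool dosing the day after seeding with one drug alone or a fixed anchor-drug dose plus five library-drug doses (not always all listed) in √10 steps.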

Compound in the test “Venetoclax + Vorinostat”: CC1(C)CCC(CN2CCN(c3ccc(C(=O)NS(=O)(=O)c4ccc(NCC5CCOCC5)c([N+](=O)[O-])c4)c(Oc4cnc5[nH]ccc5c4)c3)CC2)=C(c2ccc(Cl)cc2)C1 [Venetoclax] + O=C(CCCCCCC(=O)Nc1ccccc1)NO [Vorinostat] (partner 1 µM)
Described as above. The method in brief:
as §1

In the case of NCI-H1734, the relative viability came to 0.529 with Venetoclax + AZD7762 (first compound 0.01 µM); 0.671 with Venetoclax + AZD7762 (first compound 0.03162 µM); 0.474 with Venetoclax + AZD7762 (first compound 0.1 µM); 0.665 in the test with Venetoclax + AZD7762 (first compound 0.3162 µM); 0.571 in the test with Venetoclax + AZD7762 (first compound 1 µM); 0.613 in the test with Venetoclax + Vorinostat (first compound 0.01 µM). Also, the relative viability with Venetoclax + Vorinostat (first compound 0.03162 µM) was determined as 0.876; with Venetoclax + Vorinostat (first compound 0.1 µM), 0.711; with Venetoclax + Vorinostat (first compound 0.3162 µM) it was 0.761; with Venetoclax + Vorinostat (first compound 1 µM), 0.76.

For HCC-78, the relative viability turned out to be 0.667 with Venetoclax + AZD7762 (first compound 0.01 µM); 0.818 with Venetoclax + AZD7762 (first compound 0.03162 µM); 0.738 in the test with Venetoclax + AZD7762 (first compound 0.1 µM); 0.577 with Venetoclax + AZD7762 (first compound 0.3162 µM); 0.539 with Venetoclax + AZD7762 (first compound 1 µM); 0.448 in the test with Venetoclax + Vorinostat (first compound 0.01 µM). The relative viability was found to be 0.446 in the test with Venetoclax + Vorinostat (first compound 0.03162 µM), 0.373 in the test with Venetoclax + Vorinostat (first compound 0.1 µM), 0.438 in the test with Venetoclax + Vorinostat (first compound 0.3162 µM) and 0.424 in the test with Venetoclax + Vorinostat (first compound 1 µM).

The values above are taken from the supplement of paper PMC10307832.
